Assays:
Assay in all cases: Kinase panel study
Format in all cases: biochemical
Conditions in all cases: read-out: Percentage of inhibition; for inhibition at 1 µM: 1000nM; for inhibition at 10 µM: 10000nM
ROCK2 = target: T1, ROCK2 (Homo sapiens, UniProt O75116)
T1 construct: purchased Thermo Fisher Scientific
Outline: (§1)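 Outsourced panel screen. Format: ZLyte or Adapta, run per the manufacturer's procedures. Read-out: inhibition (%) at a single dose of 10 µM or 1 µM; IC50s also generated.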

INSR = target: T2, INSR (Homo sapiens, UniProt P06213)
T2 construct: purchased Thermo Fisher Scientific
T2 sequence (P06213 28-1382): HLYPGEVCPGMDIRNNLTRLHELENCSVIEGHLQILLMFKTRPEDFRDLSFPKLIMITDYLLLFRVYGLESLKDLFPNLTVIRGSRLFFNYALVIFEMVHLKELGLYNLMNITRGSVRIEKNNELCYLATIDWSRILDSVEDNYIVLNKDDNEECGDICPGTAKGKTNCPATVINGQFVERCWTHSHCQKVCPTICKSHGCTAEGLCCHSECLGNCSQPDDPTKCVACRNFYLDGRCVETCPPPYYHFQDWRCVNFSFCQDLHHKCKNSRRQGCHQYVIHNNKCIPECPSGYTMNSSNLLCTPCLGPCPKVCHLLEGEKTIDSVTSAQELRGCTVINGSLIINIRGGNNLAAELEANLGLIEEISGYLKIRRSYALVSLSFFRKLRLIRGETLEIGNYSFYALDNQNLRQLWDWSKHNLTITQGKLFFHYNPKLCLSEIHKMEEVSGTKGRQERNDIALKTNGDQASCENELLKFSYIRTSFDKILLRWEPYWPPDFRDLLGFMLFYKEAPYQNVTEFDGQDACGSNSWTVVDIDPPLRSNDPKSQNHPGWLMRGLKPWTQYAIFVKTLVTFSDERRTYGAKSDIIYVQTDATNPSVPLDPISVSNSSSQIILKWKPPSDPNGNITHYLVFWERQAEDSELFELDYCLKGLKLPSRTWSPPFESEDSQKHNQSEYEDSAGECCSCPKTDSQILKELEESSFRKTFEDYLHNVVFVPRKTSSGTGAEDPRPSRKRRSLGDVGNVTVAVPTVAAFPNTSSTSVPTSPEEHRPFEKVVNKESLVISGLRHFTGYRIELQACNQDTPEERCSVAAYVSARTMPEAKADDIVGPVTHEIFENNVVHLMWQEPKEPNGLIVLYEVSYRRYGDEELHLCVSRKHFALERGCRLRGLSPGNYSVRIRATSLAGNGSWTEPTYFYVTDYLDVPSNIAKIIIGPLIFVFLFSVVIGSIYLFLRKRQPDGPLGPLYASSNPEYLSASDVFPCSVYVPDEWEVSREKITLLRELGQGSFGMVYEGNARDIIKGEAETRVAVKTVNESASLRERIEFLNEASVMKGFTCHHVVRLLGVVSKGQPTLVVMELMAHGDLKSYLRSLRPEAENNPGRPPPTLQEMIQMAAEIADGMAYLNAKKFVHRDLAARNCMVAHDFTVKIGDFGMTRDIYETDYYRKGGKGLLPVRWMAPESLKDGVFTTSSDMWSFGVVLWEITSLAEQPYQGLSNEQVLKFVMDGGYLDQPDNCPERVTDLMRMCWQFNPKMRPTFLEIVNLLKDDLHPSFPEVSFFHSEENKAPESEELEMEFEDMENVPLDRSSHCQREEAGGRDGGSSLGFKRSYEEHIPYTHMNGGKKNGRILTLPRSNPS
Outline: as §1

YES1 = target: T3, YES1 (Homo sapiens, UniProt P07947)
T3 construct: purchased Thermo Fisher Scientific
T3 sequence (P07947 whole entry): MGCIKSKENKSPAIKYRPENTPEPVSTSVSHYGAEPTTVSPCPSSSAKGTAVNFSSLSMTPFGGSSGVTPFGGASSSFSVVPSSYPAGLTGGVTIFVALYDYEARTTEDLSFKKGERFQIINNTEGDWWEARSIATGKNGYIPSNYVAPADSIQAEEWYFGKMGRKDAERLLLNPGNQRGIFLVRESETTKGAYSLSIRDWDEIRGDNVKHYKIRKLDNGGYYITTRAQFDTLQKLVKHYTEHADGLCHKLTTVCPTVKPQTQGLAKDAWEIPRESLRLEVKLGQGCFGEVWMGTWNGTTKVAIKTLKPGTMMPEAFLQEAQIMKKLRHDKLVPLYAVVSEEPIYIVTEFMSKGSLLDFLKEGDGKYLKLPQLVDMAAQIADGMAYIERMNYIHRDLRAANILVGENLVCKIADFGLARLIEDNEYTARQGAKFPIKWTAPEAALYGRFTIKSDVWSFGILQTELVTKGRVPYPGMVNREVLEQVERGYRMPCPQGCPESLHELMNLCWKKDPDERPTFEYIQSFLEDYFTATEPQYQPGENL
Outline: as §1

BRSK1 (SAD1) = target: T4, BRSK1 (SAD1) (Homo sapiens, UniProt Q8TDC3)
T4 construct: purchased Thermo Fisher Scientific
T4 sequence (Q8TDC3 1-778): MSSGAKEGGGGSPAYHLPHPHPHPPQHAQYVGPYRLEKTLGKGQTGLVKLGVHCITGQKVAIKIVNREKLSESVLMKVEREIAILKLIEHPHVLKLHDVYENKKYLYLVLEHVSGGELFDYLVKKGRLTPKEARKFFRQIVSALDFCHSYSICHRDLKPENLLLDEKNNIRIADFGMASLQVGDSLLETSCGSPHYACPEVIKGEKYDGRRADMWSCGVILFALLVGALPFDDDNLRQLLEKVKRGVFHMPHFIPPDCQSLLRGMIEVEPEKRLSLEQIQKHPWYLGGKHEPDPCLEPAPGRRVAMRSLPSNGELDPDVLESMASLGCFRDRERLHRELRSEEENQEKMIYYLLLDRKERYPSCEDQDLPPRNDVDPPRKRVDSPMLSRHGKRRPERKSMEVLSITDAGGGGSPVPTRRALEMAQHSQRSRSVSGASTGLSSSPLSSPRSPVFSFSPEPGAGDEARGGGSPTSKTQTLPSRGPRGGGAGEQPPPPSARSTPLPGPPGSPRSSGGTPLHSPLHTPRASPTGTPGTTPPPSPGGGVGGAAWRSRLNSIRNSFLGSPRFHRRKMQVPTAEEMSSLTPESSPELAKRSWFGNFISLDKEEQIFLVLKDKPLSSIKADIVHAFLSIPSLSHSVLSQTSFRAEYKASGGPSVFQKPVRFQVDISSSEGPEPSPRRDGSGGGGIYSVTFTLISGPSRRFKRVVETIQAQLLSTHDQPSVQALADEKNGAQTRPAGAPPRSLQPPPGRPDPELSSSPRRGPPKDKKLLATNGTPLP
Outline: as §1

CSK = target: T5, CSK (Homo sapiens, UniProt P41240)
T5 construct: purchased Thermo Fisher Scientific
T5 sequence (P41240 whole entry): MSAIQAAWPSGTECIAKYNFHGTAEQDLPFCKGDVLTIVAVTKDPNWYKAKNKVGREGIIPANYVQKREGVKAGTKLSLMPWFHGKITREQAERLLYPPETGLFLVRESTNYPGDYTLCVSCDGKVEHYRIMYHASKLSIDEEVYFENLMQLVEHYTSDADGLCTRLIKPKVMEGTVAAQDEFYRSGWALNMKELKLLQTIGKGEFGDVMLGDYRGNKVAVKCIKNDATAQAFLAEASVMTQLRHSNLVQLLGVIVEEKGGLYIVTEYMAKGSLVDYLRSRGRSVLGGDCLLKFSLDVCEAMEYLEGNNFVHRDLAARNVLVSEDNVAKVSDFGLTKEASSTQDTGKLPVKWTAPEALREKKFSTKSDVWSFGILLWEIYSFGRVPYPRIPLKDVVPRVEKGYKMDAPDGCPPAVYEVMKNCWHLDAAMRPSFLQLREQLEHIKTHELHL
Outline: as §1

PTK2B (FAK2) = target: T6, PTK2B (FAK2) (Homo sapiens, UniProt Q14289)
T6 construct: purchased Thermo Fisher Scientific
T6 sequence (Q14289 whole entry): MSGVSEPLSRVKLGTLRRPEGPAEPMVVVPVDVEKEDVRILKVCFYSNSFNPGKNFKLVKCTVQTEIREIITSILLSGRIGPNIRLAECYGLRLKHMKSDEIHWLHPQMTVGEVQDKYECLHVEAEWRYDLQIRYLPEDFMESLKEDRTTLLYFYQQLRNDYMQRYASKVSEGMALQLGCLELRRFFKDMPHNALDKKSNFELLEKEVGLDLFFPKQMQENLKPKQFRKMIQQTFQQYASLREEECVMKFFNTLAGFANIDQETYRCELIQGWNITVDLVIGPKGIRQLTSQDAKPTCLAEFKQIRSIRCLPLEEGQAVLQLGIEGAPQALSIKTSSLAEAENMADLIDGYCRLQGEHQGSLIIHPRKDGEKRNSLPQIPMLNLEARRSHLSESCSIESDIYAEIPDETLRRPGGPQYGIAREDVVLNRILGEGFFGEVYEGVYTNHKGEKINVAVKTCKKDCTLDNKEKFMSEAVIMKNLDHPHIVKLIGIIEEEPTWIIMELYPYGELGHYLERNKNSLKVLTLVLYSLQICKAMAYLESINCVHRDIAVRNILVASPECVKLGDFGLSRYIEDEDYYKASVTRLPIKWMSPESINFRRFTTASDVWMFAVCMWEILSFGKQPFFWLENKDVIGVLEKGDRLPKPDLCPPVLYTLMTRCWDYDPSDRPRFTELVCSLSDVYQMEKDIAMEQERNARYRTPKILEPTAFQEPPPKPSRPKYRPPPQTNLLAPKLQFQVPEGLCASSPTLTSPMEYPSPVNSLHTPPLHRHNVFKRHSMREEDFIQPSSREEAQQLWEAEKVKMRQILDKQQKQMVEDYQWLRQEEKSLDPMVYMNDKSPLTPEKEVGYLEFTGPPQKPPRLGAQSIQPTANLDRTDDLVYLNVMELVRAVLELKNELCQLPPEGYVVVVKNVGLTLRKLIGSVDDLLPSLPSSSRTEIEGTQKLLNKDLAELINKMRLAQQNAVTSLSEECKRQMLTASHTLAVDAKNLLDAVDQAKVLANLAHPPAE
Outline: as §1

ADRBK1 (GRK2) = target: T7, ADRBK1 (GRK2) (Homo sapiens, UniProt P25098)
T7 construct: purchased Thermo Fisher Scientific
T7 sequence (P25098 1-689): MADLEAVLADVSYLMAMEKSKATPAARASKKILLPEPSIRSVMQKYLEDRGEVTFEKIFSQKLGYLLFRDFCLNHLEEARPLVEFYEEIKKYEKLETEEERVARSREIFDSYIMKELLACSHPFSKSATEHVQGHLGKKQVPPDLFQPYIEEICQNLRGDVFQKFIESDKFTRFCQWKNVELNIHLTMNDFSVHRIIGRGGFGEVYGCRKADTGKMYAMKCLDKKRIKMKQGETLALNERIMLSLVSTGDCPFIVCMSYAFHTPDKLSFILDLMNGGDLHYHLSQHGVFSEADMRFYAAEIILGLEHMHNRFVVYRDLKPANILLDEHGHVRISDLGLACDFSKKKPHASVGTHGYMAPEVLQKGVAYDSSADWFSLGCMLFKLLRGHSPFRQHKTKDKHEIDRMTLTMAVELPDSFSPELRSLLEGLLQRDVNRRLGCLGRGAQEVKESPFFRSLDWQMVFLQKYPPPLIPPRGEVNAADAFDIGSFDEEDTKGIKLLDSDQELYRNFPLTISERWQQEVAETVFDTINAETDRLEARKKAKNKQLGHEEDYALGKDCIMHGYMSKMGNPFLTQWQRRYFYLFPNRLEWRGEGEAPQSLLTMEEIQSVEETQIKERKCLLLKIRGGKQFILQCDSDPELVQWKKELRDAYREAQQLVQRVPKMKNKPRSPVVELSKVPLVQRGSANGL
Outline: as §1

MAP4K5 (KHS1) = target: T8, MAP4K5 (KHS1) (Homo sapiens, UniProt Q9Y4K4)
T8 construct: purchased Thermo Fisher Scientific
Outline: as §1

AMPK (A2/B1/G3) = target: T9, AMPK (A2/B1/G3) (Homo sapiens, UniProt P54646)
T9 construct: purchased Thermo Fisher Scientific
Outline: as §1

CSNK1A1 (CK1 alpha 1) = target: T10, CSNK1A1 (CK1 alpha 1) (Homo sapiens, UniProt P48729)
T10 construct: purchased Thermo Fisher Scientific
T10 sequence (P48729 whole entry): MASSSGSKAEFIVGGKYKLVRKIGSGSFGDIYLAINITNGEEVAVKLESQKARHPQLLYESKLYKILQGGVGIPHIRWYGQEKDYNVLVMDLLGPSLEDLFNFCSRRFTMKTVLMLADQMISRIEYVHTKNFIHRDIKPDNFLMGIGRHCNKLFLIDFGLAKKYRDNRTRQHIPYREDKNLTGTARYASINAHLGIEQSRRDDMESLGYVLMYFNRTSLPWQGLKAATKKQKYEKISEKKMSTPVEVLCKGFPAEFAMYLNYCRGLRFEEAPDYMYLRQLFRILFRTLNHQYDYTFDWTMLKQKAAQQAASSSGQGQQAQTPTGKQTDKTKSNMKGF
Outline: as §1

T1 sequence (O75116 whole entry): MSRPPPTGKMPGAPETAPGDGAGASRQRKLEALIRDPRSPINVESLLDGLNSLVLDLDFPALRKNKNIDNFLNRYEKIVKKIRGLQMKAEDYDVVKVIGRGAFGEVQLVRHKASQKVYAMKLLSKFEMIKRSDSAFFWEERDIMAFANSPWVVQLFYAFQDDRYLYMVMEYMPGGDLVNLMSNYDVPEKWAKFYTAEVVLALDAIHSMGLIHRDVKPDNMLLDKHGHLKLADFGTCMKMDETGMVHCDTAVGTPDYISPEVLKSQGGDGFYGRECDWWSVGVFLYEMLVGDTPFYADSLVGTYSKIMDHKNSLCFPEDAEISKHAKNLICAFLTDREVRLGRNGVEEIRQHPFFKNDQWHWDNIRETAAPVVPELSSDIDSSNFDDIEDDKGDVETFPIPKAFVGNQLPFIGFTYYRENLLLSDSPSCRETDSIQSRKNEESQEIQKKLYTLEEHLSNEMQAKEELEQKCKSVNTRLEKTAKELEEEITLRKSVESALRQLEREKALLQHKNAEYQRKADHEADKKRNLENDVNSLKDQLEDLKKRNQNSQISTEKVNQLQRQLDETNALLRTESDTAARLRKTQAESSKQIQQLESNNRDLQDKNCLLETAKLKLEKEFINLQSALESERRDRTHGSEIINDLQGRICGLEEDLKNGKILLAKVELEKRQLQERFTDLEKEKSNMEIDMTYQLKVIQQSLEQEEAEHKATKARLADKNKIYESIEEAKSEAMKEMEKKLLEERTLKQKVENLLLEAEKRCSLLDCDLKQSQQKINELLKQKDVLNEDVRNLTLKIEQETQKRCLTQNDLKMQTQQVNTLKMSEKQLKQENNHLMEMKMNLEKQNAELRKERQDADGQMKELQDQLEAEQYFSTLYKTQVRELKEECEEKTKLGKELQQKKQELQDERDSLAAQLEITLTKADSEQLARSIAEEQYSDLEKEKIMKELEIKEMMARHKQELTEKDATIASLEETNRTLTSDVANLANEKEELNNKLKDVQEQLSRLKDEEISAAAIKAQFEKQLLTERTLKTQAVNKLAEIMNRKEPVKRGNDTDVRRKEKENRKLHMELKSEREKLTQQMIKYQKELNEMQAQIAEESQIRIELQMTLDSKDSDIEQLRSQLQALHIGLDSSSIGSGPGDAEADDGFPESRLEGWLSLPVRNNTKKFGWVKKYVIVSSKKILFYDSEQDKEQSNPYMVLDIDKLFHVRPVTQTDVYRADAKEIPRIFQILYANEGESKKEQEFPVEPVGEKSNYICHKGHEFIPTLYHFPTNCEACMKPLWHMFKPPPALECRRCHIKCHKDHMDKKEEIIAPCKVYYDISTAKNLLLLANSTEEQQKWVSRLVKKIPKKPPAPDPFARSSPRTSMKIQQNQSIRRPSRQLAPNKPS

Row | Structure (SMILES) | inhibition at 1 µM (ROCK2) [%] | inhibition at 10 µM (ROCK2) [%] | inhibition at 1 µM (INSR) [%] | inhibition at 10 µM (INSR) [%] | inhibition at 1 µM (YES1) [%] | inhibition at 10 µM (YES1) [%] | inhibition at 1 µM (BRSK1 (SAD1)) [%] | inhibition at 10 µM (BRSK1 (SAD1)) [%] | inhibition at 1 µM (CSK) [%] | inhibition at 10 µM (CSK) [%] | inhibition at 1 µM (PTK2B (FAK2)) [%] | inhibition at 10 µM (PTK2B (FAK2)) [%] | inhibition at 1 µM (ADRBK1 (GRK2)) [%] | inhibition at 10 µM (ADRBK1 (GRK2)) [%] | inhibition at 1 µM (MAP4K5 (KHS1)) [%] | inhibition at 10 µM (MAP4K5 (KHS1)) [%] | inhibition at 1 µM (AMPK (A2/B1/G3)) [%] | inhibition at 10 µM (AMPK (A2/B1/G3)) [%] | inhibition at 1 µM (CSNK1A1 (CK1 alpha 1)) [%] | inhibition at 10 µM (CSNK1A1 (CK1 alpha 1)) [%]
1 | COc1ccc2c(c1OC)c(=O)n1c3ccc(O)cc3c3ccnc2c31 [MW01, 5-Hydroxy-10,11-dimethoxy-9H-benzo[c]indolo[3,2,1-ij][1,5]naphthyridin-9-one] | 14 | 18 | 1 | 11 | 17 | 16 | 0 | 6 | 11 | 18 | 2 | 9 | 8 | 17 | 39 | 68 | -2 | 12 | 5 | 17
2 | COc1ccc2cc3c(N)nn(C(=O)c4cccc(N(C)C)c4)c3nc2c1 [MW05, (3-Amino-7-methoxypyrazolo[3,4-b]quinolin-1-yl)-[3-(dimethylamino)phenyl]methanone] | 14 | 4 | 8 | -7 | 15 | 20 | -1 | -6 | 9 | 13 | -2 | -7 | -1 | 4 | 15 | 4 | 0 | -3 | 2 | 1

Source: EP4467141A1, “PYRAZOLO-QUINOLINES AS SELECTIVE INHIBITORS OF GENOTOXIC STRESS-INDUCED IKK/NF- KB PATHWAYS FOR CANCER THERAPY” (Max-Delbrück-Centrum für Molekulare Medizin in der …, priority 2023, dated 2024)
